# Reference: PubChem BioAssay (NCI)
#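 Interpolation was linear, between the two tested concentrations surrounding the appropriate level; five concentrations were tested over 48 hours in 96-well plates. The concentration for 50% growth inhibition is given as GI50. TGI: concentration producing complete growth inhibition.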
# Tests used:
# Assay in all cases: DTP human tumour cell line panel, 48 h
# [1] = tested on: SW-620 colon
# [2] = tested on: COLO 205 colon
# [3] = tested on: HT29 colon
# [4] = tested on: M14 melanoma
# [5] = tested on: NCI-H460 lung
# [6] = tested on: OVCAR-3 ovarian
# [7] = tested on: UACC-257 melanoma
# [8] = tested on: SF-539 CNS
# [9] = tested on: HL-60(TB) leukemia
# [10] = tested on: SF-295 CNS
# [11] = tested on: SK-MEL-28 melanoma
# [12] = tested on: LOX IMVI melanoma
# [13] = tested on: SK-MEL-5 melanoma
# [14] = tested on: MOLT-4 leukemia
# [15] = tested on: TK-10 renal
# [16] = tested on: IGROV1 ovarian
# [17] = tested on: NCI-H226 lung
# [18] = tested on: SF-268 CNS
# [19] = tested on: SN12C renal
# [20] = tested on: MDA-MB-231 breast
# [21] = tested on: EKVX NSCLC
# [22] = tested on: A498 renal
# [23] = tested on: HOP-62 NSCLC
# [24] = tested on: T-47D breast
# [25] = tested on: SNB-75 CNS
# [26] = tested on: RXF 393 renal
# [27] = tested on: OVCAR-4 ovarian
# [28] = tested on: OVCAR-5 ovarian
# [29] = tested on: CAKI-1 renal
# [30] = tested on: K-562 leukemia
# [31] = tested on: CCRF-CEM leukemia
# [32] = tested on: MDA-N
# [33] = tested on: OVCAR-8 ovarian
# [34] = tested on: NCI-H522 lung
# [35] = tested on: NCI-H23 lung
# [36] = tested on: SK-MEL-2 melanoma
# [37] = tested on: HCT-15 colon
# [38] = tested on: 786-0 renal
# [39] = tested on: SK-OV-3 ovarian
# [40] = tested on: UACC-62 melanoma
# [41] = tested on: PC-3 prostate
# [42] = tested on: DU-145 prostate
# [43] = tested on: MDA-MB-435
# [44] = tested on: BT-549 breast
# [45] = tested on: UO-31 renal
# [46] = tested on: HCC-2998 colon
# [47] = tested on: NCI/ADR-RES ovarian
# [48] = tested on: MALME-3M melanoma
# [49] = tested on: ACHN renal
# [50] = tested on: MCF7 breast
# [51] = tested on: HCT-116 colon
# [52] = tested on: HS 578T breast
# [53] = tested on: KM12 colon
# [54] = tested on: A549 NSCLC
# [55] = tested on: U251 CNS
# [56] = tested on: SNB-19 CNS
# [57] = tested on: RPMI-8226 leukemia
smiles,measurement,setting,value
O=C1Nc2ccccc2/C1=N\[O-].O=C1Nc2ccccc2/C1=N\[O-].[Cu+2],GI50,[1],> 100 µM
same,TGI,[1],> 100 µM
same,GI50,[2],> 100 µM
same,TGI,[2],> 100 µM
same,GI50,[3],> 100 µM
same,TGI,[3],> 100 µM
same,GI50,[4],> 100 µM
same,TGI,[4],> 100 µM
same,GI50,[5],> 100 µM
same,TGI,[5],> 100 µM
same,GI50,[6],> 100 µM
same,TGI,[6],> 100 µM
same,GI50,[7],> 100 µM
same,TGI,[7],> 100 µM
same,GI50,[8],> 100 µM
same,TGI,[8],> 100 µM
same,GI50,[9],> 100 µM
same,TGI,[9],> 100 µM
same,GI50,[10],> 100 µM
same,TGI,[10],> 100 µM
same,GI50,[11],> 100 µM
same,TGI,[11],> 100 µM
same,GI50,[12],> 100 µM
same,TGI,[12],> 100 µM
same,GI50,[13],> 100 µM
same,TGI,[13],> 100 µM
same,GI50,[14],> 100 µM
same,TGI,[14],> 100 µM
same,GI50,[15],> 100 µM
same,TGI,[15],> 100 µM
same,GI50,[16],> 100 µM
same,TGI,[16],> 100 µM
same,GI50,[17],> 100 µM
same,TGI,[17],> 100 µM
same,GI50,[18],> 100 µM
same,TGI,[18],> 100 µM
same,GI50,[19],> 100 µM
same,TGI,[19],> 100 µM
same,GI50,[20],> 100 µM
same,TGI,[20],> 100 µM
same,GI50,[21],> 100 µM
same,TGI,[21],> 100 µM
same,GI50,[22],> 100 µM
same,TGI,[22],> 100 µM
same,GI50,[23],> 100 µM
same,TGI,[23],> 100 µM
same,GI50,[24],> 100 µM
same,TGI,[24],> 100 µM
same,GI50,[25],> 100 µM
same,TGI,[25],> 100 µM
same,GI50,[26],> 100 µM
same,TGI,[26],> 100 µM
same,GI50,[27],> 100 µM
same,TGI,[27],> 100 µM
same,GI50,[28],> 100 µM
same,TGI,[28],> 100 µM
same,GI50,[29],> 100 µM
same,TGI,[29],> 100 µM
same,GI50,[30],> 100 µM
same,TGI,[30],> 100 µM
same,GI50,[31],> 100 µM
same,TGI,[31],> 100 µM
same,GI50,[32],> 100 µM
same,TGI,[32],> 100 µM
same,GI50,[33],> 100 µM
same,TGI,[33],> 100 µM
same,GI50,[34],> 100 µM
same,TGI,[34],> 100 µM
same,GI50,[35],> 100 µM
same,TGI,[35],> 100 µM
same,GI50,[36],> 100 µM
same,TGI,[36],> 100 µM
same,GI50,[37],> 100 µM
same,TGI,[37],> 100 µM
same,GI50,[38],> 100 µM
same,TGI,[38],> 100 µM
same,GI50,[39],> 100 µM
same,TGI,[39],> 100 µM
same,GI50,[40],> 100 µM
same,TGI,[40],> 100 µM
same,GI50,[41],> 100 µM
same,TGI,[41],> 100 µM
same,GI50,[42],> 100 µM
same,TGI,[42],> 100 µM
same,GI50,[43],> 100 µM
same,TGI,[43],> 100 µM
same,GI50,[44],> 100 µM
same,TGI,[44],> 100 µM
same,GI50,[45],> 100 µM
same,TGI,[45],> 100 µM
same,GI50,[46],> 100 µM
same,TGI,[46],> 100 µM
same,GI50,[47],> 100 µM
same,TGI,[47],> 100 µM
same,GI50,[48],> 100 µM
same,TGI,[48],> 100 µM
same,GI50,[49],> 100 µM
same,TGI,[49],> 100 µM
same,GI50,[50],> 100 µM
same,TGI,[50],> 100 µM
same,GI50,[51],> 100 µM
same,TGI,[51],> 100 µM
same,GI50,[52],> 100 µM
same,TGI,[52],> 100 µM
same,GI50,[53],> 100 µM
same,TGI,[53],> 100 µM
same,GI50,[54],> 100 µM
same,TGI,[54],> 100 µM
same,GI50,[55],> 100 µM
same,TGI,[55],> 100 µM
same,GI50,[56],> 100 µM
same,TGI,[56],> 100 µM
same,GI50,[57],> 100 µM
same,TGI,[57],> 100 µM
